Test results published in US9096601B2 (CSPC Zhongqi Pharmaceutical Technology (Shijiazhuang) Co., …, priority 2010, dated 2015).

How the values were obtained:
Test in all cases: In-vitro tumor cell proliferation inhibition, MTT
Format in all cases: cell-based, human
[1] = system: breast carcinoma cell strain MDA-MB-468; details: 72 hours
[2] = system: colon cancer cell strain SW620; details: 72 hours
In short: (§1)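 MTT colorimetric proliferation test: plated cells exposed 72 h to compound dilution series, DMSO 1% solvent control included. A570 gave inhibition relative to drug-free control; IC50 or inhibitory rate from at least three experiments. HCC827 and BT474 grown in RPMI-1640, A431 and SW620 in DMEM, both with 10% FBS.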

[3] = system: chronic granulocytic leukemia cell strain K562; details: 72 hours
[4] = system: acute myelogenous leukemia cell strain MV4-11; details: 72 hours
[5] = system: gastric cancer cell strain MK-45; details: 72 hours, read-out: MK45 (IC50)
[6] = system: squamous cell carcinoma cell strain A431; details: 72 hours
In short: as §1

[7] = system: malignant melanoma cell strain A375; details: 72 hours
[8] = system: breast carcinoma cell strain BT474; details: 72 hours
In short: as §1

[9] = system: liver cancer cell strain Hep G2; details: 72 hours, read-out: HEPG2 (IC50)
[10] = system: colon cancer cell strain HCT116; details: 72 hours
[11] = system: colon cancer cell strain SW480; details: 72 hours

SMILES | IC50 [1] | IC50 [2] | IC50 [3] | IC50 [4] | IC50 [5] | IC50 [6] | IC50 [7] | IC50 [8] | IC50 [9] | IC50 [10] | IC50 [11]
COc1cccc(Nc2nc3cnc(Nc4ccc(N5CCN(C)CC5)cc4)nc3n2C(C)C)c1 [Compounds 8-17] | 783 nM | > 1000 nM | 3 nM | 684 nM | 664 nM | 8460 nM | 190 nM | 635 nM | > 10000 nM | 813 nM | > 10000 nM
COc1ccc(Nc2nc3cnc(Nc4ccc(N5CCN(C)CC5)cc4)nc3n2C(C)C)cc1 [Compounds 8-18] | 3170 nM | 4000 nM | 1220 nM | 183 nM | 1520 nM | 6350 nM | 6460 nM | 2120 nM | > 10000 nM | 6290 nM | > 10000 nM
CC(C)n1c(Nc2ccc(NC(=O)Nc3ccc(F)c(Cl)c3)cc2)nc2cnc(Nc3ccc(N4CCN(C)CC4)cc3)nc21 [Compounds 8-21] | 890 nM | 2220 nM | 1340 nM | 279 nM | 1330 nM | 5720 nM | 725 nM | 1590 nM | 8930 nM | 772 nM | > 10000 nM
CC(C)n1c(Nc2ccc(C(=O)Nc3cccc(F)c3)cc2)nc2cnc(Nc3ccc(N4CCN(C)CC4)cc3)nc21 [Compounds 8-22] | 1720 nM | 1920 nM | 921 nM | 283 nM | 511 nM | 5520 nM | 1300 nM | 1720 nM | > 10000 nM | 1830 nM | > 10000 nM
CN1CCN(c2ccc(Nc3ncc4nc(Nc5ccccc5)n(C5CC5)c4n3)cc2)CC1 [Compounds 8-23] | 5220 nM | > 10000 nM | 5200 nM | 241 nM | 2790 nM | 7040 nM | 3180 nM | 6810 nM | > 10000 nM | > 10000 nM | > 10000 nM
CN1CCN(c2ccc(Nc3ncc4nc(Nc5ccccc5)n(C)c4n3)cc2)CC1 [Compounds 8-24] | 9650 nM | > 10000 nM | 1420 nM | 288 nM | 8080 nM | 9650 nM | 2400 nM | 2410 nM | > 10000 nM | 1380 nM | > 10000 nM
CN1CCN(c2ccc(Nc3ncc4nc(Nc5ccccc5)[nH]c4n3)cc2)CC1 [Compounds 8-25] | > 10000 nM | > 10000 nM | > 10000 nM | 7900 nM | 5350 nM | > 10000 nM | > 10000 nM | 9990 nM | > 10000 nM | > 10000 nM | > 10000 nM
CC(C)n1c(Nc2ccc(C(F)(F)F)cc2)nc2cnc(Nc3ccc(N4CCN(C)CC4)cc3)nc21 [Compounds 8-27] | 1960 nM | > 1000 nM | 777 nM | 88 nM | 6110 nM | 2350 nM | 9790 nM | 1180 nM | > 1000 nM | > 1000 nM | 2600 nM
CC(C)n1c(NC2CCCCC2)nc2cnc(Nc3ccc(N4CCN(C)CC4)cc3)nc21 [Compounds 8-30] | > 10000 nM | 4220 nM | 5760 nM | 7960 nM | 5470 nM | > 10000 nM | > 10000 nM | 4460 nM | > 10000 nM | > 10000 nM | > 10000 nM
C=CC(=O)Nc1cccc(Nc2ncc3nc(Nc4ccccc4)n(C(C)C)c3n2)c1 [Compounds 8-38] | 280 nM | 370 nM | 268 nM | 730 nM | 1790 nM | 179 nM | > 10000 nM | 1680 nM | 2900 nM | 443 nM | > 10000 nM
